Experimental data from ChEMBL document CHEMBL1649312, “Absence of association between piperaquine in vitro responses and polymorphisms in the pfcrt, pfmdr1, pfmrp, and pfnhe genes in Plasmodium falciparum” (Antimicrob Agents Chemother, 2010).

How the values were obtained:
Format in all cases: functional, organism-based
Plasmodium falciparum [1] = experiment: Antimalarial activity against Plasmodium falciparum IMT A4 harboring Ppcrt M74I, N75E, K76T, […], Q271E, N326S and I356T mutant gene, Pmdr1 Y184F, N1042D, D1246Y mutant gene assessed as incorporation of [3]H hypoxanthine after 48 hrs by scintillation counter; conditions: IMT A4, 48 h
Plasmodium falciparum [2] = experiment: Antimalarial activity against Plasmodium falciparum IMT 8425 harboring Ppcrt I371R mutant gene and Pfnhe-1 ms4760 microsatellite mutant assessed as incorporation of [3]H hypoxanthine after 48 hrs by scintillation counter; conditions: IMT 8425, 48 h
Plasmodium falciparum [3] = experiment: Antimalarial activity against Plasmodium falciparum W2 harboring Ppcrt M74I, N75E, K76T, A220S, Q271E, N326S and I356T mutant gene, Pmdr1 N86Y mutant gene and Pfmrp H191Y and S437A mutant gene assessed as incorporation of [3]H hypoxanthine after 48 hrs by scintillation counter; conditions: W2, 48 h
Plasmodium falciparum [4] = experiment: Antimalarial activity against Plasmodium falciparum IMT K2 assessed as inhibition of [3H] incorporation after 48 hrs by scintillation counter
Plasmodium falciparum [5] = experiment: Antimalarial activity against Plasmodium falciparum 106/1 harboring Ppcrt M74I, N75E, K76T, A220S, Q271E, N326S and I356T mutant gene, Pmdr1 N86Y mutant gene and Pfmrp H191Y and S437A mutant gene assessed as incorporation of [3]H hypoxanthine after 48 hrs by scintillation counter; conditions: 106/1, 48 h
Plasmodium falciparum [6] = experiment: Antimalarial activity against Plasmodium falciparum IMT 10336 harboring Pfcrt Q271E mutant gene and Ppcrt I371R mutant gene assessed as incorporation of [3]H hypoxanthine after 48 hrs by scintillation counter; conditions: IMT 10336, 48 h
Plasmodium falciparum [7] = experiment: Antimalarial activity against Plasmodium falciparum FCR3 harboring Ppcrt M74I, N75E, K76T, A220S, Q271E, N326S and I356T mutant gene, Pmdr1 N86Y mutant gene and Pfmrp H191Y and S437A mutant gene assessed as incorporation of [3]H hypoxanthine after 48 hrs by scintillation counter; conditions: FCR3, 48 h
Plasmodium falciparum [8] = experiment: Antimalarial activity against Plasmodium falciparum IMT K4 assessed as inhibition of [3H] incorporation after 48 hrs by scintillation counter
Plasmodium falciparum [9] = experiment: Antimalarial activity against Plasmodium falciparum PA harboring Ppcrt M74I, N75E, K76T, A220S, Q271E, N326S and I356T mutant gene, Pmdr1 N86Y mutant gene and Pfmrp H191Y and S437A mutant gene assessed as incorporation of [3]H hypoxanthine after 48 hrs by scintillation counter
Plasmodium falciparum [10] = experiment: Antimalarial activity against Plasmodium falciparum W2 assessed as inhibition of [3H] incorporation after 48 hrs by scintillation counter
Plasmodium falciparum [11] = experiment: Antimalarial activity against Plasmodium falciparum 3D7 assessed as inhibition of [3H] incorporation after 48 hrs by scintillation counter
Plasmodium falciparum [12] = experiment: Antimalarial activity against Plasmodium falciparum 3D7 harboring Ppcrt I371R mutant gene and Pfnhe-1 ms4760 microsatellite mutant assessed as incorporation of [3]H hypoxanthine after 48 hrs by scintillation counter; conditions: 3D7, 48 h
Plasmodium falciparum [13] = experiment: Antimalarial activity against Plasmodium falciparum IMT K14 harboring Ppcrt M74I, N75E, K76T, A220S, Q271E, N326S mutant gene, Pmdr1 Y184F, S1034C, N1042D, D1246Y mutant gene and Pfmrp H191Y and S437A mutant gene assessed as incorporation of [3]H hypoxanthine after 48 hrs by scintillation counter; conditions: IMT K14, 48 h
Plasmodium falciparum [14] = experiment: Antimalarial activity against Plasmodium falciparum IMT 8425 assessed as inhibition of [3H] incorporation after 48 hrs by scintillation counter
Plasmodium falciparum [15] = experiment: Antimalarial activity against Plasmodium falciparum IMT 10500 assessed as inhibition of [3H] incorporation after 48 hrs by scintillation counter
Plasmodium falciparum [16] = experiment: Antimalarial activity against Plasmodium falciparum IMT 31 assessed as inhibition of [3H] incorporation after 48 hrs by scintillation counter
Plasmodium falciparum [17] = experiment: Antimalarial activity against Plasmodium falciparum IMT 16332 harboring Ppcrt M74I, N75E, K76T, A220S, Q271E mutant gene, Pmdr1 N86Y mutant gene assessed as incorporation of [3]H hypoxanthine after 48 hrs by scintillation counter; conditions: IMT 16332, 48 h
Plasmodium falciparum [18] = experiment: Antimalarial activity against Plasmodium falciparum FCR3 assessed as inhibition of [3H] incorporation after 48 hrs by scintillation counter
Plasmodium falciparum [19] = experiment: Antimalarial activity against Plasmodium falciparum FCM29 harboring Ppcrt M74I, N75E, K76T, A220S, Q271E, N326S and I356T mutant gene, Pmdr1 N86Y mutant gene and Pfmrp H191Y and S437A mutant gene assessed as incorporation of [3]H hypoxanthine after 48 hrs by scintillation counter; conditions: FCM29, 48 h
Plasmodium falciparum [20] = experiment: Antimalarial activity against Plasmodium falciparum IMT L1 harboring Ppcrt M74I, N75E, K76T, A220S, Q271E mutant gene, Pmdr1 N86Y mutant gene and Pfmrp H191Y and S437A mutant gene assessed as incorporation of [3]H hypoxanthine after 48 hrs by scintillation counter; conditions: IMT L1, 48 h
Plasmodium falciparum [21] = experiment: Antimalarial activity against Plasmodium falciparum IMT L1 assessed as inhibition of [3H] incorporation after 48 hrs by scintillation counter
Plasmodium falciparum [22] = experiment: Antimalarial activity against Plasmodium falciparum IMT 10354 assessed as inhibition of [3H] incorporation after 48 hrs by scintillation counter
Plasmodium falciparum [23] = experiment: Antimalarial activity against Plasmodium falciparum IMT Bres harboring Ppcrt M74I, N75E, K76T, A220S, Q271E, N326S and I356T mutant gene, Pmdr1 N86Y mutant gene and Pfmrp H191Y and S437A mutant gene assessed as incorporation of [3]H hypoxanthine after 48 hrs by scintillation counter
Plasmodium falciparum [24] = experiment: Antimalarial activity against Plasmodium falciparum IMT 9881 harboring Ppcrt I371R mutant gene assessed as incorporation of [3]H hypoxanthine after 48 hrs by scintillation counter; conditions: IMT 9881, 48 h
Plasmodium falciparum [25] = experiment: Antimalarial activity against Plasmodium falciparum IMT Vol harboring Ppcrt M74I, N75E, K76T, A220S, Q271E, N326S mutant gene, Pmdr1 N86Y mutant gene and Pfmrp H191Y and S437A mutant gene assessed as incorporation of [3]H hypoxanthine after 48 hrs by scintillation counter
Plasmodium falciparum [26] = experiment: Antimalarial activity against Plasmodium falciparum IMT Guy harboring Ppcrt K76T, A220S, N326D and I371R mutant gene, Pmdr1 […], 1042D and D1246Y, mutant gene and Pfmrp H191Y and S437A mutant gene and Pfnhe-1 ms4760 microsatellite mutant assessed as incorporation of [3]H hypoxanthine after 48 hrs by scintillation counter
Plasmodium falciparum [27] = experiment: Antimalarial activity against Plasmodium falciparum IMT Bres assessed as inhibition of [3H] incorporation after 48 hrs by scintillation counter
Plasmodium falciparum [28] = experiment: Antimalarial activity against Plasmodium falciparum IMT A4 assessed as inhibition of [3H] incorporation after 48 hrs by scintillation counter
Plasmodium falciparum [29] = experiment: Antimalarial activity against Plasmodium falciparum IMT 10354 harboring Ppcrt M74I, N75E, K76T, A220S mutant gene, Pmdr1 D1246Y mutant gene assessed as incorporation of [3]H hypoxanthine after 48 hrs by scintillation counter; conditions: IMT 10354, 48 h

SMILES	IC50 (Plasmodium falciparum [1]) [nM]	IC50 (Plasmodium falciparum [2]) [nM]	IC50 (Plasmodium falciparum [3]) [nM]	IC50 (Plasmodium falciparum [4]) [nM]	IC50 (Plasmodium falciparum [5]) [nM]	IC50 (Plasmodium falciparum [6]) [nM]	IC50 (Plasmodium falciparum [7]) [nM]	IC50 (Plasmodium falciparum [8]) [nM]	IC50 (Plasmodium falciparum [9]) [nM]	IC50 (Plasmodium falciparum [10]) [nM]	IC50 (Plasmodium falciparum [11]) [nM]	IC50 (Plasmodium falciparum [12]) [nM]	IC50 (Plasmodium falciparum [13]) [nM]	IC50 (Plasmodium falciparum [14]) [nM]	IC50 (Plasmodium falciparum [15]) [nM]	IC50 (Plasmodium falciparum [16]) [nM]	IC50 (Plasmodium falciparum [17]) [nM]	IC50 (Plasmodium falciparum [18]) [nM]	IC50 (Plasmodium falciparum [19]) [nM]	IC50 (Plasmodium falciparum [20]) [nM]	also measured
Clc1ccc2c(N3CCN(CCCN4CCN(c5ccnc6cc(Cl)ccc56)CC4)CC3)ccnc2c1 [PIPERAQUINE]	75	44	52	84	69	74	53	64	80	52	58	58	61	44	81	48	48	53	98	47	IC50 (Plasmodium falciparum [21]): 47 nM; IC50 (Plasmodium falciparum [22]): 29 nM; IC50 (Plasmodium falciparum [23]): 46 nM; IC50 (Plasmodium falciparum [24]): 56 nM; IC50 (Plasmodium falciparum [25]): 37 nM; IC50 (Plasmodium falciparum [26]): 63 nM; IC50 (Plasmodium falciparum [27]): 46 nM; IC50 (Plasmodium falciparum [28]): 75 nM; IC50 (Plasmodium falciparum [29]): 29 nM
C[C@H]1[C@@H](O)O[C@@H]2O[C@@]3(C)CC[C@H]4[C@H](C)CC[C@@H]1[C@@]24OO3 [ARTENIMOL]	1.5	1.7	3	1.2	5.8	1.6	1.6	3.4	1.4	3	2.8	2.8	2.1	1.7	3.3	1.7	1.1	1.6	1.3	0.9	IC50 (Plasmodium falciparum [21]): 0.9 nM; IC50 (Plasmodium falciparum [22]): 0.4 nM; IC50 (Plasmodium falciparum [23]): 1.4 nM; IC50 (Plasmodium falciparum [24]): 3.5 nM; IC50 (Plasmodium falciparum [25]): 1.2 nM; IC50 (Plasmodium falciparum [26]): 1.8 nM; IC50 (Plasmodium falciparum [27]): 1.4 nM; IC50 (Plasmodium falciparum [28]): 1.5 nM; IC50 (Plasmodium falciparum [29]): 0.4 nM
